From US7060290B1, “Phosphocholine linked prodrug derivatives” (Supergen, Inc., priority 1999, dated 2006)
“Also recorded” adds a separate entry of the source.

Assays:
[1] = First-pass inactivation in the liver after oral administration; details: phosphocholine-derivatized form; stated as believed
Excerpt: Subsequently, only a fraction of a percent of the administered drug is biologically available for function. […] When the phosphocholine moiety is removed by an esterase, such as phospholipase C, sphingomyelinase, etc., then the parent compound will be available for binding and function in the target tissue. Glucuronidation would only occur on its return to the liver after removal of the phosphocholine moiety.

[2] = tested on: cutaneous hypersensitivity immune response; assay: DNCB-induced cutaneous contact hypersensitivity (ear swelling) in mice; format: in vivo, mice (Balb/c); details: for Effect on DNCB-induced cutaneous hypersensitivity immune response: 100 μg/day/mouse subcutaneously, twelve-day study, ear rechallenge with 1% DNCB, swelling on days 7–12; for Effect of dexamethasone on the response to the hormone: co-administered with dexamethasone, days 7–12
Method: The effects of DHEA-PC on cutaneous contact hypersensitivity was studied. In this study, mice (Balb/c) were immunologically challenged with DNCB (2% in ethanol) applied to a 2 cm area on the back. The steroid was injected subcutaneously (100 μg/day/mouse) throughout the twelve-day study period. Ears were rechallenged with DNCB (1% in ethanol) on days 7–12 and swelling was measured daily in order to evaluate the effect on the immune system.

[3] = Water/benzene extraction of the tritiated DHEA-phosphocholine reaction product, phases counted by scintillation; format: physicochemical
Method: A dehydroepiandrosterone(DHEA)-phosphocholine derivative was synthesized as follows: 1 mg of phosphocholine (calcium salt; Sigma Chemical, St. Louis, Mo.) was dissolved in 0.5 ml of formamide (Cat # S-7503; Lot # 55HO257; Sigma Chemical) and 0.5 ml of pyridine (Cat # P-4036; Lot # 55H1489; Sigma Chemical). 0.025 mCi of (1,2,6,7 ^3H(n)-Dehydroepiandrosterone (Cat # NET814; Lot # 3146097; 89.2 Ci/mmol; Dupont, NEN Products, Boston, Mass.) in 0.025 ml of ethanol was added. The reaction was catalyzed by the addition (as the dry solid) of 5 mg of dicyclohexylcarbodiimide (Cat # D-3129; Lot # 34hO647; Sigma Chemical). The reaction mixture was incubated overnight at room temperature. In the morning, 9 ml of water was added and the mixture extracted 3 times with 10 ml portions of benzene. The benzene extracts were combined and aliquots of both phases were counted in a scintillation counter. The results are set forth below:
The aqueous layer was re-extracted with benzene. The second benzene extraction yielded 272 cpm (0.01 M1) as a confirmation.
Free DHEA starting material would have been extracted quantitatively into benzene with this protocol.

[4] = tested on: neutral sphingomylenase; assay: Hydrolysis of DHEA-PC by neutral sphingomylenase; format: biochemical
Method: DHEA-phosphocholine (DHEA-PC) was synthesized by sequential reaction of DHEA, choline, and water with phosphorous oxychloride. The synthetic product had the same HPLC retention time and the same mass-spectrum as did the endogenous, actual compound. […] When human serum extracts were analyzed, mass fragments were detected at the same retention time as synthetic material.

[5] = J. Med. Chem. 39:2156–2169, 1996; cited from earlier work
[6] = tested on: enzyme on lymphocyte cell membrane that cleaves phosphocholine; assay: Lymphocyte cell membrane enzyme that cleaves phosphocholine from other compounds; format: cell-based; details: lymphocytes; data not shown
Excerpt: The conjugated therapeutic agents will be at least ten times more water soluble then the original alcohol. This will increase their bioavailability and decrease their metabolism to, e.g., the 3-glycoside in the case of steroids, which should be a major excretion pathway. The decreased glycoside formation will be caused by the presence of the phosphoester at that site. The derivative is not expected to be active prior to hydrolysis of the phospholipid group. […] The activity of this enzyme is stimulated ten-fold by TGF-α (data not shown). Without wishing to be bound by theory, it is believed that use of phospholipid-conjugated antibiotics of the present invention will lead to high concentrations of active agents at the site of an infection by the following mechanism. Lymphocytes are attracted to the site of an infection or inflammation where they release TGF-α, which, in turn, stimulates phospholipid hydrolysis in other subtypes. This same process will lead to local release of an active form of the antibiotic from the phospholipid diester conjugate. Because of the response of the enzyme to local concentrations of TGF-α, there should be a correspondingly high local concentration of the antibiotic. This will lead to effective therapy and lower toxicity.

C[C@]12CC[C@@H](OP(=O)([O-])OCC[N+](C)(C)C)C[C@H]1CC[C@@H]1[C@@H]2CC[C@]2(C)C(=O)CC[C@@H]12
Fraction not metabolized at each pass through the liver [1]: about 80%

C[C@]12CC[C@H](O)CC1=CC[C@@H]1[C@@H]2CC[C@]2(C)C(=O)CC[C@@H]12 [DHEA, dehydroepiandrosterone]
Effect on DNCB-induced cutaneous hypersensitivity immune response [2]: similar, high level response | Effect of dexamethasone on the response to the hormone [2]: not suppressed by dexamethasone

C[C@]12CC[C@H](OP(=O)([O-])OCC[N+](C)(C)C)CC1=CC[C@@H]1[C@@H]2CC[C@]2(C)C(=O)CC[C@@H]12 [DHEA-PC, DHEA-3-Phosphocholine]
Radioactivity in second benzene extraction ([3]; 0.01 M1, re-extraction of the aqueous layer with benzene): 272 cpm | Radioactivity in aqueous phase ([3]; 0.01 ml aliquot, after 3 extractions with 10 ml benzene, 3H label): 10,729 cpm | Radioactivity in benzene phase ([3]; 0.01 ml aliquot, combined benzene extracts, 3H label): 1,121 cpm | Phase in which the reaction product stays (hydrophilic character) ([3]; water/benzene, free DHEA would have been extracted quantitatively into benzene): remains in the aqueous phase | Hydrolysis by neutral sphingomylenase [4]: hydrolyzed | Effect on DNCB-induced cutaneous hypersensitivity immune response [2]: potentiated dinitrochlorobenzene-induced sensitization; also recorded: enhanced the cutaneous hypersensitivity immune response | Effect of dexamethasone on the response to the hormone [2]: not suppressed by dexamethasone

C[C@]12CC[C@H](OS(=O)(=O)O)CC1=CC[C@@H]1[C@@H]2CC[C@]2(C)C(=O)CC[C@@H]12 [DHEA-sulfate]
Effect on DNCB-induced cutaneous hypersensitivity immune response [2]: similar, high level response | Effect of dexamethasone on the response to the hormone [2]: not suppressed by dexamethasone

O=C1N(Cc2ccc(CO)cc2)[C@H](Cc2ccccc2)[C@H](O)[C@@H](O)[C@@H](Cc2ccccc2)N1Cc1ccc(CO)cc1 [DMP-323]
Aqueous solubility [5]: low

TGF-α: factor released by lymphocytes that stimulates phospholipid hydrolysis
Stimulation of the activity of the phosphocholine-cleaving enzyme [6]: ten-fold
